{"source": "patent US20140073634A1", "about": "(Institute For Applied Cancer Science/The University of …, priority 2012, published 2014)"}
{"system": "293T-HRE-GFP-luc cells", "experiment": "Cell-based reporter assay for IC50 determinations (HRE-luciferase, hypoxia)", "settings": "6 h, 6 hrs hypoxia (1% O2), luminescence", "how_it_was_run": "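293T-HRE-GFP-luc cells were pre-incubated with serially diluted compounds for 30 min under normoxia, then held 6 hrs in hypoxia (1% O2, 37° C). HRE-driven luciferase read by Steadylite Plus luminescence; IC50 from four-parameter logistic fit.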", "units": {"IC50": "µM"}}
{"molecule": "O=c1ccc(-c2nc(-c3ccc(OC(F)(F)F)cc3)no2)cn1Cc1cccc(OC2COC2)c1", "note": "[Example 166, 1-{[3-(oxetan-3-yloxy)phenyl]methyl}-5-{3-[4-(trifluoromethoxy)phenyl]-1,2,4-oxadiazol-5-yl}-1,2-dihydropyridin-2-one]", "IC50": "< 0.1"}
{"molecule": "O=C1CN(c2cccc(Cn3cc(-c4nc(-c5ccc(OC(F)(F)F)cc5)no4)ccc3=O)c2)CCN1", "note": "[Example 167, 4-{3-[(2-oxo-5-{3-[4-(trifluoromethoxy)phenyl]-1,2,4-oxadiazol-5-yl}-1,2-dihydropyridin-1-yl)methyl]phenyl}piperazin-2-one]", "IC50": "< 0.1"}
{"molecule": "O=c1ccc(-c2nc(-c3ccc(OC(F)(F)F)cc3)no2)cn1Cc1cccc(N2CCCS2(=O)=O)c1", "note": "[Example 168, 1-(3-(1,1-dioxidoisothiazolidin-2-yl)benzyl)-5-(3-(4-(trifluoromethoxy)phenyl)-1,2,4-oxadiazol-5-yl)pyridin-2(1H)-one]", "IC50": "< 0.1"}
{"molecule": "CN1CCN(c2cccc(Cn3cc(-c4nc(-c5ccc(OC(F)(F)F)cc5)no4)ccc3=O)c2)CC1=O", "note": "[Example 169, 1-methyl-4-{3-[(2-oxo-5-{3-[4-(trifluoromethoxy)phenyl]-1,2,4-oxadiazol-5-yl}-1,2-dihydropyridin-1-yl)methyl]phenyl}piperazin-2-one]", "IC50": "< 0.1"}
{"molecule": "CS(=O)(=O)CCCOc1cccc(Cn2cc(-c3nc(-c4ccc(OC(F)(F)F)cc4)no3)ccc2=O)c1", "note": "[Example 170, 1-{[3-(3-methanesulfonylpropoxy)phenyl]methyl}-5-{3-[4-(trifluoromethoxy)phenyl]-1,2,4-oxadiazol-5-yl}-1,2-dihydropyridin-2-one]", "IC50": "0.1 to 1"}
{"molecule": "O=c1ccc(-c2nc(-c3ccc(OC(F)(F)F)cc3)no2)cn1Cc1cccc(CBr)c1", "note": "[Example 171, 1-{[3-(bromomethyl)phenyl]methyl}-5-{3-[4-(trifluoromethoxy)phenyl]-1,2,4-oxadiazol-5-yl}-1,2-dihydropyridin-2-one]", "IC50": "< 0.1"}
{"molecule": "COC(=O)/C=C/c1cccc(Cn2cc(-c3nc(-c4ccc(OC(F)(F)F)cc4)no3)ccc2=O)c1", "note": "[Example 172, methyl (2E)-3-{3-[(2-oxo-5-{3-[4-(trifluoromethoxy)phenyl]-1,2,4-oxadiazol-5-yl}-1,2-dihydropyridin-1-yl)methyl]phenyl}prop-2-enoate]", "IC50": "< 0.1"}
{"molecule": "CS(=O)(=O)C1CCN(c2cccc(Cn3nc(-c4nc(-c5ccc(OC(F)(F)F)cc5)no4)ccc3=O)c2)CC1", "note": "[Example 173, 2-{[3-(4-methanesulfonylpiperidin-1-yl)phenyl]methyl}-6-{3-[4-(trifluoromethoxy)phenyl]-1,2,4-oxadiazol-5-yl}-2,3-dihydropyridazin-3-one]", "IC50": "< 0.1"}
{"molecule": "O=c1ccc(-c2nc(-c3ccc(OC(F)(F)F)cc3)no2)nn1Cc1cccc(O)c1", "note": "[Example 174, 2-[(3-hydroxyphenyl)methyl]-6-{3-[4-(trifluoromethoxy)phenyl]-1,2,4-oxadiazol-5-yl}-2,3-dihydropyridazin-3-one]", "IC50": "0.1 to 1"}
{"molecule": "CS(=O)(=O)C1CCN(c2cc(Cn3cc(-c4nc(-c5ccc(OC(F)(F)F)cc5)no4)ccc3=O)ccn2)CC1", "note": "[Example 175, 1-{[2-(4-methanesulfonylpiperidin-1-yl)pyridin-4-yl]methyl}-5-{3-[4-(trifluoromethoxy)phenyl]-1,2,4-oxadiazol-5-yl}-1,2-dihydropyridin-2-one]", "IC50": "< 0.1"}
{"molecule": "CN1CCN(c2cc(Cn3cc(-c4nc(-c5ccc(OC(F)(F)F)cc5)no4)ccc3=O)ccn2)CC1=O", "note": "[Example 176, 1-methyl-4-{4-[(2-oxo-5-{3-[4-(trifluoromethoxy)phenyl]-1,2,4-oxadiazol-5-yl}-1,2-dihydropyridin-1-yl)methyl]pyridin-2-yl}piperazin-2-one]", "IC50": "< 0.1"}
{"molecule": "COCCOc1cccc(Cn2nc(-c3nc(-c4ccc(OC(F)(F)F)cc4)no3)ccc2=O)c1", "note": "[Example 177, 2-{[3-(2-methoxyethoxy)phenyl]methyl}-6-{3-[4-(trifluoromethoxy)phenyl]-1,2,4-oxadiazol-5-yl}-2,3-dihydropyridazin-3-one]", "IC50": "< 0.1"}
